# Assay results from US20240226287A1, “NOVEL LIPID COMPOUND AND LIPID NANOPARTICLE COMPOSITION COMPRISING THE SAME” (KOREA INSTITUTE OF SCIENCE AND TECHNOLOGY, priority 2022, published 2024).
# Tested on: Renilla Luciferase (R/L) mRNA
# Assay: Delivery efficiency: R/L protein expression after i.d. injection of mRNA-LNP into mouse ears (luminescence)
# Type: in vivo, ICR mice
# Conditions: conclusion from FIGS. 4 to 8; replacing cholesterol/butyl lithocholate in LNP
# Protocol: mRNA-LNP was injected into the ears of ICR mice by I.D. in an amount of 5 μg/20 μl based on RNA to identify expression.
# The experimental process is as follows. Each experimental group was prepared in a dose of 5 μg/20 μl based on RNA and then injected into each ear of mice by I.D. Thereafter, the expression was identified according to the maximum expression time of a target protein. In the case of R/L on which the experiment was actually carried out, expression and maintenance were identified according to two time periods which are 6 hours and 24 hours.
# After anesthesia using an individual respiratory anesthesia machine, a drug to be administered that is suitable for the experimental condition was injected via an insulin syringe. Thereafter, euthanasia was performed using CO2 at each corresponding time, and then ears were cut off. While dipping the cut ears in 300 μl of 1× Renilla Lyswas buffer, ears were completely crushed using scissors and a homogenizer instrument. Thereafter, 20 μl was taken from the mixture solution, transferred to a white 96-well plate, and added with 100 μl of Promega's Renilla luciferase assay substrate, and then luminescence was measured to compare expression.
row,Compound,effect as substitute for the structure-retaining compound (R/L expression of the LNP)
1,C[C@H](CCC(=O)O)[C@H]1CC[C@H]2[C@@H]3CC[C@@H]4CC(=O)CC[C@]4(C)[C@H]3CC[C@]12C [3-oxo-5β-cholanoic acid],excellent effects
2,O=c1cc(-c2ccc(O)c(O)c2)oc2cc(O)cc(O)c12 [luteolin],excellent effects
3,CC1=C(/C=C/C(C)=C/C=C/C(C)=C/C=C/C=C(C)/C=C/C=C(C)/C=C/C2=C(C)CCCC2(C)C)C(C)(C)CCC1 [beta-carotene],excellent effects
